The values below come from patent US20260166045A1, “COMBINATION THERAPY COMPRISING GSPT1-DIRECTED MOLECULAR GLUE DEGRADERS AND PI3K/AKT/mTOR PATHWAY INHIBITORS” (Monte Rosa Therapeutics, Inc., priority 2022, published 2026).

For this experiment, the system named is MCF7 xenografts. As to the kind of experiment: MCF7 cell-derived xenograft (CDX) in vivo combination study. More on the design: species or system BALB/c nude mice. Particulars: compound 1-1 10 mg/kg; for Δ TV ratio to vehicle group (A/C, B/C, (AB)/C): day 28, Clarke method; for Δ TV (delta tumor volume): p.o. qd for 28 days, average of four tumors. How it is done: […] (0.36 mg) pellets (Innovative Research of America Cat. No.: SE-121, pellet size: 3.0 mm) were implanted 2-3 days before cell inoculation.
Compound 1-1 was formulated every day freshly as a solution in 5% DMSO/95% (30% w/v HPβCD in water). This formulation was also used as vehicle control. Everolimus was formulated as a suspension in 1% MC (400 cps), which was prepared every 3 days.
Body weights were measured at the same time.
An approximation of drug interactions was made using the method described by Clarke (Clarke et al. 1997. Breast Cancer Res Treat. 46(2-3):255-78). This was applied to […] and can estimate interactions from limited data. In short, for compound A, B, or the combination AB (with control group C), antagonism is predicted when (AB)/C>(A/C)×(B/C), an additive effect is predicted when (AB)/C=(A/C)×(B/C), and synergistic interaction is predicted to occur when (AB)/C<(A/C)×(B/C). Calculations in Table 10B indicate that the interaction of everolimus and compound 1-1 in the MCF7 CDX model is synergistic.
17β-Estradiol (0.36 mg) pellets (Innovative Research of America Cat. No.: SE-121, pellet size: 3.0 mm) were implanted 2-3 days before cell inoculation.
Compound 1-1 was formulated every day freshly as a solution in 5% DMSO/95% (30% w/v HPβCD in water). This formulation was also used as vehicle control. Alpelisib was formulated as a solution in 20% captisol+80% water (pH adjusted to 4), which was prepared every week.

With `O=C1CCC(N2Cc3ccc(COC(=O)Nc4cc(OC(F)(F)F)ccc4F)cc3C2=O)C(=O)N1` (stereo not drawn) [Compound 1-1, [2-(2,6-dioxopiperidin-3-yl)-3-oxo-2,3-dihydro-1H-isoindol-5-yl]methyl N-[2-fluoro-5-(trifluoromethoxy)phenyl]carbamate], the “anti-tumor effect compared to vehicle” value (day 28, ANOVA with post hoc Tukey's test, alpelisib 50 mg/kg, p.o. qd) is “significant anti-tumor effect”. Under “day 28, ANOVA with post hoc Tukey's test, everolimus 2 mg/kg, p.o. qd”, the “antitumor effect vs vehicle (tumor volume)” value is on record as “statistically significant antitumor effects”. Also, the “Δ TV ratio to vehicle group (A/C, B/C, (AB)/C)” value was found to be 0.35 (alpelisib 50 mg/kg, p.o. qd) and 0.35 (everolimus 2 mg/kg, p.o. qd). Moreover, the “Δ TV (delta tumor volume)” value was determined as 216 mm^3 (day 28, alpelisib 50 mg/kg, combination 50 + 10 mg/kg) and 216 mm3 (day 28, everolimus 2 mg/kg, combination 2 + 10 mg/kg).
